Measured values reported in publication PMC8175350, “Drug repurposing screens identify chemical entities for the development of COVID-19 interventions” (Nature Communications, 2021).
Structures can show the parent of a compound that is named as a salt. Where two headings read alike, the source gives them in different places.

Key:
in vitro = details: human, Calu-3 uninfected cytotoxicity CC50 GeoMean (µM)
SARS-CoV-2 [1] = test: microbe, parasite or virus in culture; type: cell-based; details: for HeLa-ACE2 CoV-2 Sinf Average: curve-fit effect at infinite concentration; for Emax: Severe acute respiratory syndrome coronavirus 2, HeLa-ACE2, 24 h, read-out: HeLa-ACE2 CoV-2 Sinf Average
HeLa-ACE2 cells [2] = details: for HeLa-ACE2 cell count Sinf Average: curve-fit effect at infinite concentration; for EC50: read-out: HeLa-ACE2 cell count EC50 GeoMean, unrounded geometric mean
Calu-3 cells [3] = test: cells; details: Homo sapiens
[4] = Uninfected HeLa-ACE2 24 h live/dead cytotoxicity counter screen; type: cell-based, human; details: human, uninfected HeLa-ACE2 cells
HeLa-ACE2 cells [5] = test: as above; type: cell-based, human; details: for CC50: read-out: HeLa-ACE2 uninfected cytotoxicity CC50 GeoMean
SARS-CoV-2 [6] = test: microbe, parasite or virus in culture; type: cell-based; details: for Emax: Severe acute respiratory syndrome coronavirus 2, Calu-3, 48 h; for Calu-3 CoV-2 Sinf Average: curve-fit effect at infinite concentration
HeLa-ACE2 cells [7] = test: cells; details: Homo sapiens
Calu-3 cells [8] = system: Calu-3 cells
Calu-3 cells [9] = test: Uninfected Calu-3 48 h Cell-Titer Glo cytotoxicity counter screen
Calu-3 cells [10] = details: for Calu-3 cell count Sinf Average: curve-fit effect at infinite concentration; for EC50: read-out: Calu-3 cell count EC50 GeoMean
SARS-CoV-2 [11] = type: cell-based
HepG2 [12] = details: human, 72 h
HeLa-ACE2 cells [13] = test: Total cell count in the HeLa-ACE2 TOA assay; type: cell-based; details: Homo sapiens, HeLa-ACE2, read-out: HeLa-ACE2 TOA cell count EC50 GeoMean
Text: Supplement 41467_2021_23328_MOESM3_ESM.xlsx, sheet "Table S1" | column: HeLa-ACE2 TOA cell count

SARS-CoV-2 [14] = test: microbe, parasite or virus in culture; type: cell-based; details: for EC50: read-out: HeLa-ACE2 TOA CoV-2 EC50 GeoMean
HEK293T [15] = details: human, 72 h
[16] = Uninfected Calu-3 48 h Cell-Titer Glo cytotoxicity counter screen; details: human, uninfected Calu-3 cells
[17] = HepG2 72 h CellTiter-Glo cytotoxicity; details: human, HepG2 cells
HepG2 [18] = test: HepG2 72 h CellTiter-Glo cytotoxicity; details: 72 h
[19] = HEK293T 72 h CellTiter-Glo cytotoxicity; details: human, HEK293T cells
HEK293T [20] = test: HEK293T 72 h CellTiter-Glo cytotoxicity; details: 72 h
[21] = ref [33]-[49], cited from earlier work
HeLa-ACE2 cells [22] = test: Total cell count in the HeLa-ACE2 TOA (time of addition) assay; type: cell-based, human; details: Homo sapiens, HeLa-ACE2; read-out: HeLa-ACE2 TOA cell count EC50 GeoMean
[23] = unrounded geometric mean, read-out: HeLa-ACE2 CoV-2 EC50 GeoMean
[24] = curve-fit effect at infinite concentration, average
[25] = unrounded geometric mean, read-out: Calu-3 CoV-2 EC50 GeoMean
[26] = curve plateau at infinite concentration

Compound: CC/C(=C(/c1ccc(/C=C/C(=O)O)cc1)c1ccc2[nH]ncc2c1)c1ccc(F)cc1Cl [ARN-810]
- CC50 at 48 h (in vitro): > 23.8 µM
- EC50 (SARS-CoV-2 [1]; Severe acute respiratory syndrome coronavirus 2, HeLa-ACE2, geometric mean of replicates, read-out: HeLa-ACE2 CoV-2 EC50 GeoMean): > 9.59 µM
- HeLa-ACE2 cell count Sinf Average (%) (HeLa-ACE2 cells [2]; Sinf average of the curves): -100%
- Emax (Calu-3 cells [3]; Calu-3, 48 h, read-out: Calu-3 cell count Sinf Average (%)): 79%
- EC50 (Calu-3 cells [3]; Calu-3, read-out: Calu-3 cell count EC50 GeoMean (µM), geometric mean of replicates): > 3.06 µM
- CC50 at 24 h ([4]; geometric mean of replicates, read-out: HeLa-ACE2 uninfected cytotoxicity CC50 GeoMean): 11 µM
- HeLa-ACE2 uninfected cytotoxicity Sinf Average (%) (HeLa-ACE2 cells [5]; Sinf average of the curves): -99%
- Emax (SARS-CoV-2 [6]; Sinf average of the curves, read-out: Calu-3 CoV-2 Sinf Average (%)): 71%
- EC50 (SARS-CoV-2 [6]; Severe acute respiratory syndrome coronavirus 2, Calu-3, geometric mean of replicates, read-out: Calu-3 CoV-2 EC50 GeoMean): 1.1 µM
- EC50 (HeLa-ACE2 cells [7]; HeLa-ACE2, read-out: HeLa-ACE2 cell count EC50 GeoMean (µM), geometric mean of replicates): > 9.59 µM
- uninfected Calu-3 CC50 [μM] (Calu-3 cells [8]): > 23.843 ×÷ 1.22 (n=3) μM
- Calu-3 uninfected cytotoxicity Sinf Average (%) (Calu-3 cells [8]; human, 48 h): -89%

Compound: COc1ccc(C[C@H]2NC[C@H](O)[C@H]2OC(C)=O)cc1 [Anisomycin]
- HeLa-ACE2 CoV-2 Sinf Average (SARS-CoV-2 [1]): -102%
- EC50 (SARS-CoV-2 [1]; [23]): 0.0664 µM
- Calu-3 uninfected cytotoxicity Sinf Average (Calu-3 cells [9]; [24]): -66%
- HeLa-ACE2 cell count Sinf Average (HeLa-ACE2 cells [2]): -103%
- EC50 (HeLa-ACE2 cells [2]): 0.636 µM
- HeLa-ACE2 uninfected cytotoxicity Sinf Average (HeLa-ACE2 cells [5]; [24]): -98%
- Calu-3 cell count Sinf Average (Calu-3 cells [10]): 37%
- EC50 (Calu-3 cells [10]; unrounded geometric mean): > 2.46 µM
- Calu-3 CoV-2 Sinf Average (SARS-CoV-2 [6]): -98%
- EC50 (SARS-CoV-2 [6]; [25]): 0.127 µM

Compound: Cc1cccc(/C=N/Nc2cc(N3CCOCC3)nc(OCCc3ccccn3)n2)c1 [Apilimod - control]
- Emax (SARS-CoV-2 [1]; [26]): 95%
- EC50 (SARS-CoV-2 [1]; read-out: HeLa-ACE2 CoV-2 EC50 GeoMean): 0.011 µM
- HeLa-ACE2 uninfected cytotoxicity Sinf Average (HeLa-ACE2 cells [5]; [26]): -100%
- CC50 (HeLa-ACE2 cells [5]): > 11.5 µM
- EC50 (Calu-3 cells [10]): > 2.5 µM
- HeLa-ACE2 synergy score with remdesivi [δ] (SARS-CoV-2 [11]; combination with remdesivir, synergy score δ): 3.568
- HepG2 72-hour cytotoxicity Sinf Average (HepG2 [12]): -69%
- EC50 (SARS-CoV-2 [6]; read-out: Calu-3 CoV-2 EC50 GeoMean): 1.87 µM
- EC50 (HeLa-ACE2 cells [13]): > 2.4 µM
- EC50 (SARS-CoV-2 [14]): > 2.4 µM
- HEK293T 72-hour cytotoxicty Sinf Average (HEK293T [15]): -79%

Compound: CCCCN(CCCC)CCC(O)c1cc2c(Cl)cc(Cl)cc2c2cc(C(F)(F)F)ccc12 (stereo not shown) [Halofantrine HCl]
- Emax (SARS-CoV-2 [1]): 100%
- EC50 (SARS-CoV-2 [1]; Severe acute respiratory syndrome coronavirus 2, HeLa-ACE2, detail column, read-out: HeLa-ACE2 CoV-2 EC50 GeoMean): 1.16 µM
- EC50 (SARS-CoV-2 [1]; Severe acute respiratory syndrome coronavirus 2, HeLa-ACE2, reconfirmed hits, read-out: HeLa-ACE2 SARS-CoV-2 EC50): 0.33 µM
- HeLa-ACE2 SI (SARS-CoV-2 [1]; selectivity index, uninfected HeLa-ACE2 CC50 / SARS-CoV-2 EC50): > 20.66
- CC50 at 48 h ([16]; Calu-3 Uninf. cells CC50 (µM), reconfirmed hits): > 22.6 µM
- CC50 at 48 h ([16]; Calu-3 uninfected cytotoxicity CC50 GeoMean): > 22.6 µM
- Calu-3 uninfected cytotoxicity Sinf Average (Calu-3 cells [9]; human, uninfected Calu-3 cells, 48 h): -100%
- EC50 (Calu-3 cells [3]; Calu-3, read-out: Calu-3 cell count EC50 GeoMean): > 9.98 µM
- CC50 at 24 h ([4]; reconfirmed hits, read-out: HeLa-ACE2 Uninf. cells CC50): 18.7 µM
- CC50 at 24 h ([4]; read-out: HeLa-ACE2 uninfected cytotoxicity CC50 GeoMean): > 23.9 µM
- HeLa-ACE2 uninfected cytotoxicity Sinf Average (HeLa-ACE2 cells [5]; human, uninfected HeLa-ACE2 cells, 24 h): -100%
- CC50 at 72 h [17]: 30.5 µM
- HepG2 72-hour cytotoxicity Sinf Average (HepG2 [18]): -100%
- CC50 at 72 h [19]: 25.8 µM
- HEK293T 72-hour cytotoxicty Sinf Average (HEK293T [20]): -100%
- Approx. t1/2 ([21]; human): 58 h
- Cmax ([21]; read-out: Approx. Cmax, human oral): 1000 nM
- EC50 (HeLa-ACE2 cells [22]): > 9.61 µM
- Synergy score with remdesivir (δ) (SARS-CoV-2 [11]; HeLa-ACE2): −3.51
- HeLa-ACE2 synergy score with remdesivi (SARS-CoV-2 [11]; combination with remdesivir): -3.509 δ
- Emax (SARS-CoV-2 [6]; read-out: Calu-3 CoV-2 Sinf Average): 100%
- EC50 (SARS-CoV-2 [6]; Severe acute respiratory syndrome coronavirus 2, Calu-3, reconfirmed hits, read-out: Calu-3 SARS-CoV-2 EC50): > 8.47 µM
- Calu-3 SI (SARS-CoV-2 [6]; selectivity index, uninfected Calu-3 CC50 / SARS-CoV-2 EC50): > 2.67
- Emax (HeLa-ACE2 cells [7]; HeLa-ACE2, 24 h, read-out: HeLa-ACE2 cell count Sinf Average): -39%
- EC50 (HeLa-ACE2 cells [7]; HeLa-ACE2, read-out: HeLa-ACE2 cell count EC50 GeoMean): > 6.19 µM
- TOA:HeLa-ACE2 EC50 Ratio (SARS-CoV-2 [14]): 3.833
- Emax (SARS-CoV-2 [14]; Severe acute respiratory syndrome coronavirus 2, HeLa-ACE2, 10 h, read-out: HeLa-ACE2 TOA CoV-2 Sinf Average): 100%
- EC50 (SARS-CoV-2 [14]; Severe acute respiratory syndrome coronavirus 2, HeLa-ACE2): 4.44 µM

Compound: NS(=O)(=O)c1ccc(N2N=C(C(F)(F)F)CC2c2c[nH]c3c(Cl)cccc23)cc1 (stereo not shown) [ON-09310]
- HeLa-ACE2 CoV-2 Sinf Average (SARS-CoV-2 [1]): -100%
- EC50 (SARS-CoV-2 [1]; [23]): 3.72 µM
- Calu-3 uninfected cytotoxicity Sinf Average (Calu-3 cells [9]; [24]): -97%
- CC50 (Calu-3 cells [9]; read-out: Calu-3 uninfected cytotoxicity CC50 GeoMean, unrounded geometric mean): 16.9 µM
- HeLa-ACE2 cell count Sinf Average (HeLa-ACE2 cells [2]): -100%
- EC50 (HeLa-ACE2 cells [2]): > 9.33 µM
- HeLa-ACE2 uninfected cytotoxicity Sinf Average (HeLa-ACE2 cells [5]; [24]): -103%
- CC50 (HeLa-ACE2 cells [5]; unrounded geometric mean): 8.2 µM
- Calu-3 cell count Sinf Average (Calu-3 cells [10]): 100%
- EC50 (Calu-3 cells [10]; unrounded geometric mean): > 8.32 µM
- Calu-3 CoV-2 Sinf Average (SARS-CoV-2 [6]): -95%
- EC50 (SARS-CoV-2 [6]; [25]): 1.81 µM
